The NIST ThermoML archive (doi:10.1016/j.jct.2006.10.017)

What was measured:
[1] = refractive index (Na D-line) (dimensionless); xn = mol fraction of the nth substance listed; conditions: 101 kPa, Liquid
[2] = xn = mol fraction of the nth substance listed; conditions: 101 kPa, Liquid

CCO [ethanol] + CCCCn1cc[n+](C)c1.F[P-](F)(F)(F)(F)F
x2 = 0
Conditions	mass density, 293.15 K [kg/m3]	mass density, 298.15 K [kg/m3]	mass density, 303.15 K [kg/m3]	refractive index, 293.15 K	refractive index, 298.15 K	refractive index, 303.15 K	speed of sound, 293.15 K [m/s]	speed of sound, 298.15 K [m/s]	speed of sound, 303.15 K [m/s]
[1]	–	–	–	1.36138	1.35929	1.35725	–	–	–
[2]	789.3	785.1	780.7	–	–	–	1160	1143	1127

CCO [ethanol] + CCCCn1cc[n+](C)c1.COS(=O)(=O)[O-]
x2 = 0
Conditions	mass density, 293.15 K [kg/m3]	mass density, 298.15 K [kg/m3]	mass density, 303.15 K [kg/m3]	refractive index, 293.15 K	refractive index, 298.15 K	refractive index, 303.15 K	speed of sound, 293.15 K [m/s]	speed of sound, 298.15 K [m/s]	speed of sound, 303.15 K [m/s]
[1]	–	–	–	1.36138	1.35929	1.35725	–	–	–
[2]	789.3	785.1	780.7	–	–	–	1160	1143	1127

CCCCCCn1cc[n+](C)c1.F[P-](F)(F)(F)(F)F [1-hexyl-3-methylimidazolium hexafluorophosphate] + CCO
Conditions	mass density, [2] [kg/m3]	refractive index, [1]	speed of sound, [2] [m/s]
293.15 K, x1 = 0.0198	830	1.36597	1164
293.15 K, x1 = 0.2033	1055.6	1.39358	1248
293.15 K, x1 = 0.312	1125.6	1.40092	1300
293.15 K, x1 = 0.3897	1161.8	1.40471	1329
293.15 K, x1 = 0.5002	1201.4	1.40893	1360
293.15 K, x1 = 0.5982	1228.4	1.41163	1380
293.15 K, x1 = 0.6961	1250.2	1.41394	1396
293.15 K, x1 = 0.7902	1267.6	1.41562	1410
293.15 K, x1 = 0.9033	1285.2	1.41784	1423
293.15 K, x1 = 0.992	1297	1.41884	1435
293.15 K, x1 = 1	1297.9	1.41923	1438
298.15 K, x1 = 0.0198	825.8	1.36482	1150
298.15 K, x1 = 0.0465	873.5	1.37109	1160
298.15 K, x1 = 0.0991	948.7	1.38024	1185
298.15 K, x1 = 0.2033	1051.6	1.3921	1237
298.15 K, x1 = 0.312	1121.5	1.39964	1288
298.15 K, x1 = 0.3897	1157.7	1.40388	1317
298.15 K, x1 = 0.5002	1197.2	1.4081	1348
298.15 K, x1 = 0.5982	1224.4	1.41098	1368
298.15 K, x1 = 0.6961	1246.2	1.41313	1384
298.15 K, x1 = 0.7902	1263.5	1.41472	1397
298.15 K, x1 = 0.9033	1281.1	1.41645	1410
298.15 K, x1 = 0.992	1292.8	1.41775	1421
298.15 K, x1 = 1	1293.7	1.41787	1424
303.15 K, x1 = 0.0198	821.8	1.36297	1134
303.15 K, x1 = 0.0465	869.8	1.36941	1144
303.15 K, x1 = 0.0991	944.8	1.3787	1169
303.15 K, x1 = 0.2033	1047.5	1.39057	1226
303.15 K, x1 = 0.312	1117.3	1.39816	1277
303.15 K, x1 = 0.3897	1153.6	1.40239	1306
303.15 K, x1 = 0.5002	1193.3	1.40693	1336
303.15 K, x1 = 0.5982	1220.4	1.40986	1357
303.15 K, x1 = 0.6961	1242.2	1.41197	1372
303.15 K, x1 = 0.7902	1259.5	1.41366	1386
303.15 K, x1 = 0.9033	1277	1.41525	1399
303.15 K, x1 = 0.992	1288.7	1.41635	1409
303.15 K, x1 = 1	1289.6	1.41643	1411
